# Reference: US4668677A, “4-phenylphthalazine derivatives, their preparation and their use as pharmaceuticals” (Mitsubishi Chemical Industries Limited, priority 1984, dated 1987)
# Where two headings read alike, the source gives them in different places.
# Tests used:
# femoral artery [1] = assay: Action on blood flow volume in femoral artery; type: in vivo, rabbit (male New Zealand White)
# Method: (§1) Male New Zealand White rabbits (body weight of 2.8 Kg to 3.5 Kg) were used and anesthetized with pentobarbital sodium. Blood flow volumes in the carotid artery and femoral artery were measured and recorded via a non-blood observing type of a probe for measuring blood flow volume. Also, blood pressure in femoral artery was simultaneously measured and recorded with measurement of blood flow.
# (§2) The compound of this invention was dissolved in an aqueous solution containing 1% tartaric acid and 1% dimethylacetamide, while papaverine hydrochloride dissolved in 0.9% physiological saline. These test compounds were intravenously given through a residual polyethylene tube within femoral vein.
# rabbits = assay: Anti-thrombotic activity: arachidonic acid-induced mortality in rabbits; type: in vivo, rabbit (male New Zealand White)
# Method: (§3) Male ICR-JCL strain mice with an average body weight of about 25 g and male New Zealand White rabbits with an average body weight of about 3 Kg were used.
# Where rabbits were used as experimental animals, a suspension of the test compound in a 1% tragacanth aqueous solution was orally administered to animals at 5 ml/Kg. Two hours after the administration, an arachidonic acid solution dissolved in a 0.1M potassium carbonate solution was injected into pinna vein at 1.4 mg/Kg.
# Evaluation of activity was effected with mortality at the time when arachidonic acid given. If survived at the first administration of arachidonic acid, arachidonic acid was administered after 6 hours, 24 hours, 48 hours and 72 hours from the administration of the test compound, respectively, and mortality was determined in respective cases.
# mice = assay: Anti-thrombotic activity: arachidonic acid-induced mortality in mice; type: in vivo, mouse (male ICR-JCL strain); details: for Survival time of dead mice: arachidonic acid 100 mg/Kg i.v.; for Mortality: arachidonic acid 100 mg/Kg i.v. after 1 hour
# Method: as §3
# Where mice were used as experimental animals, a suspension of the test compound indicated in Table 3 in a 1% tragacanth aqueous solution was orally administered to animals at 20 ml/Kg. One hour after the administration, an arachidonic acid (PL-biochemical Co., Inc.) solution dissolved in a 0.1M sodium carbonate aqueous solution was intravenously given at 100 mg/Kg. Evaluation of activity was effected with the time from the administration of arachidonic acid up to the death of animals as well as mortality.
# blood platelets = assay: Activity to inhibit the aggregation of blood platelets (collagen, ex vivo after oral administration); type: in vivo, rat (male Wistar-ST strain); details: Rattus norvegicus, Platelet
# Method: Male Wistar-ST strain rats of an average body weight of 250 g were used, a group consisting of 8 animals. The test compound indicated in the following Table 1 was orally administered to rats in the form of a suspension in a 1% tragacanth aqueous solution at 4 ml/Kg (the test compound 10 mg/Kg).
# One hour after the administration, blood samples were obtained from the carotid artery by means of a cannule. […] Tubes were turned upside-down and then subjected to centrifugation at 200×g over 15 minutes to assign the supernatant as a platelet-rich plasma (PRP). The residue was further centrifuged at […] over 15 minutes to assign the supernatant as a platelet-poor plasma (PPP). These supernatants were applied for determining the ability to aggregate blood platelets. […] As an aggregation inducing agent, collagen (availale from Hormon-chemie A.G.) was used at a concentration of 7 to 10 μg/ml.
# Inhibitory rate to aggregate blood platelets was calculated according to the following equation: [formula] A: […] in the group to which the 1% tragacanth solution alone was given (Control)
# B: Aggregation rate in the group to which the tragacanth solution of the test compound was given.
# [2] = system: PGI2-like substance in vessel walls; assay: Influence on production of PGI2-like substance in vessel walls (ADP aggregation with carotid artery ring); type: in vivo, rat (male Wistar-ST strain); details: 1 hour, 10 μM ADP
# Method: Male Wistar-ST strain rats with an average weight of about 250 g were used as experimental animals. After fasted for 18 hours, 6.3 ml of blood sample were obtained from corotid artery and immediately thereafter 0.7 ml of an anticoagulant (3.8% sodium citrate) was added and the sample was centrifuged at 200×g over 15 minutes to take platelet-rich plasma (PRP). The same procedures as above were carried out, using 5 to 6 rats, whereby 5-6 ml as normal PRP were stored and employed.
# Reference aggregation values were determined by pouring 1 ml each of stored PRP into plastic test tubes, incubating them at 22° C. for 10 minutes and then determining aggregation rate. As an aggregation inducing agent, one employed 10 μM ADP (available from Sigma Co., Inc.)
# A suspension of the compound of this invention or aspirin in a 1% aqueous solution of tragacanth was orally given to animals. After 1 hour, 5 mg of carotid artery were cut out in a ring shape and placed into a plastic test tube together with 1 ml of stored PRP. After incubated at 22° C. for 10 minutes, aggregation rate was determined.
# Also, non-medicated groups were similarly treated and aggregation rate was determined.
# Determination of blood platelet aggregation rate was made by means of an aggregometer.
# in vivo = details: rat, po, rats
# femoral artery [3] = assay: Action on blood pressure in femoral artery; type: in vivo, rabbit (male New Zealand White)
# Method: as §1, §2
compound,measurement,setting,value
"CCC(CC)Nc1nnc(-c2ccccc2)c2ccccc12 [Compound 2, 1-(1-ethylpropylamino)-4-phenylphthalazine]","Blood flow volume in femoral artery, A: Before administration",femoral artery [1]; 0.01 mg/Kg i.v.,20.9 mL/min
same,"Blood flow volume in femoral artery, B: After administration",femoral artery [1]; 0.01 mg/Kg i.v.,26.5 mL/min
same,"Blood flow volume in femoral artery, C: Increase degree",femoral artery [1]; 0.01 mg/kg i.v.,5.6 mL/min
same,"Blood flow volume in femoral artery, D: Increase rate",femoral artery [1]; 0.01 mg/kg i.v.,28.5%
same,"Blood flow volume in femoral artery, A: Before administration",femoral artery [1]; 0.05 mg/Kg i.v.,18.8 mL/min
same,"Blood flow volume in femoral artery, B: After administration",femoral artery [1]; 0.05 mg/Kg i.v.,20.3 mL/min
same,"Blood flow volume in femoral artery, C: Increase degree",femoral artery [1]; 0.05 mg/kg i.v.,3.3 mL/min
same,"Blood flow volume in femoral artery, D: Increase rate",femoral artery [1]; 0.05 mg/kg i.v.,13.4%
same,"Blood flow volume in femoral artery, A: Before administration",femoral artery [1]; 0.1 mg/Kg i.v.,15.9 mL/min
same,"Blood flow volume in femoral artery, B: After administration",femoral artery [1]; 0.1 mg/Kg i.v.,12.5 mL/min
same,"Blood flow volume in femoral artery, C: Increase degree",femoral artery [1]; 0.1 mg/kg i.v.,3.4 mL/min
same,"Blood flow volume in femoral artery, D: Increase rate",femoral artery [1]; 0.1 mg/kg i.v.,23.4%
same,"Blood flow volume in femoral artery, A: Before administration",femoral artery [1]; 0.5 mg/Kg i.v.,19.5 mL/min
same,"Blood flow volume in femoral artery, B: After administration",femoral artery [1]; 0.5 mg/Kg i.v.,13.8 mL/min
same,"Blood flow volume in femoral artery, C: Increase degree",femoral artery [1]; 0.5 mg/kg i.v.,5.7 mL/min
same,"Blood flow volume in femoral artery, D: Increase rate",femoral artery [1]; 0.5 mg/kg i.v.,36.7%
same,Mortality (number of rabbits),"rabbits; 3 mg/Kg oral, 2 hrs. after administration, of 4 rabbits",2
same,Mortality (number of rabbits),"rabbits; 3 mg/Kg oral, 6 hrs. after administration, of 4 rabbits",1
same,Mortality (number of rabbits),"rabbits; 3 mg/Kg oral, 24 hrs. after administration, of 4 rabbits",1
same,Mortality (number of rabbits),"rabbits; 10 mg/Kg oral, 6 hrs. after administration, of 4 rabbits",4
same,Mortality (number of rabbits),"rabbits; 30 mg/Kg oral, 24 hrs. after administration, of 8 (Compound 1) or 4 rabbits",2
same,Mortality (number of rabbits),"rabbits; 30 mg/Kg oral, 48 hrs. after administration, of 8 (Compound 1) or 4 rabbits",2
same,Survival time of dead mice,mice; 10 mg/Kg oral,127 ± 14 s
same,Mortality,mice; 10 mg/Kg oral,86%
same,Survival time of dead mice,mice; 30 mg/Kg oral,127.5 ± 14 s
same,Mortality,mice; 30 mg/Kg oral,86%
same,Mortality,mice; 100 mg/Kg oral,0%
same,Mortality,mice; 300 mg/Kg oral,0%
same,inhibition at 3 mg/kg,"blood platelets; 3 mg/Kg oral (Table 5), read-out: Inhibitory rate of blood platelet aggregation",39%
same,inhibition at 10 mg/kg,"blood platelets; 10 mg/Kg oral (Table 5), read-out: Inhibitory rate of blood platelet aggregation",70.1%
same,inhibition at 10 mg/kg,"blood platelets; 10 mg/Kg oral, 1 hour after administration, collagen 7 to 10 μg/ml, read-out: Inhibitory rate (blood platelet aggregation)",70.1%
same,inhibition at 30 mg/kg,"blood platelets; 30 mg/Kg oral (Table 5), read-out: Inhibitory rate of blood platelet aggregation",85.5%
same,inhibition at 100 mg/kg,"blood platelets; 100 mg/Kg oral (Table 5), read-out: Inhibitory rate of blood platelet aggregation",100%
same,Aggregation rate with ADP when carotid artery ring added,[2]; 3 mg/Kg oral,0.0%
same,Aggregation rate with ADP when carotid artery ring added,[2]; 10 mg/Kg oral,7.7%
same,Aggregation rate with ADP when carotid artery ring added,[2]; 30 mg/Kg oral,1.3%
same,Aggregation rate with ADP when carotid artery ring added,[2]; 100 mg/Kg oral,23.3%
same,LD50,in vivo,> 8000 mg/kg
same,"Blood pressure in femoral artery, A: Before administration",femoral artery [3]; 0.01 mg/kg i.v.,93.8 mmHg
same,"Blood pressure in femoral artery, B: After administration",femoral artery [3]; 0.01 mg/kg i.v.,91.3 mmHg
same,"Blood pressure in femoral artery, E: Lowering degree",femoral artery [3]; 0.01 mg/kg i.v.,2.5 mmHg
same,"Blood pressure in femoral artery, F: Lowering rate",femoral artery [3]; 0.01 mg/kg i.v.,2.7%
same,"Blood pressure in femoral artery, A: Before administration",femoral artery [3]; 0.05 mg/kg i.v.,90.8 mmHg
same,"Blood pressure in femoral artery, B: After administration",femoral artery [3]; 0.05 mg/kg i.v.,83.7 mmHg
same,"Blood pressure in femoral artery, E: Lowering degree",femoral artery [3]; 0.05 mg/kg i.v.,7.1 mmHg
same,"Blood pressure in femoral artery, F: Lowering rate",femoral artery [3]; 0.05 mg/kg i.v.,8.07%
same,"Blood pressure in femoral artery, A: Before administration",femoral artery [3]; 0.1 mg/kg i.v.,88.8 mmHg
same,"Blood pressure in femoral artery, B: After administration",femoral artery [3]; 0.1 mg/kg i.v.,78.1 mmHg
same,"Blood pressure in femoral artery, E: Lowering degree",femoral artery [3]; 0.1 mg/kg i.v.,10.6 mmHg
same,"Blood pressure in femoral artery, F: Lowering rate",femoral artery [3]; 0.1 mg/kg i.v.,11.6%
same,"Blood pressure in femoral artery, A: Before administration",femoral artery [3]; 0.5 mg/kg i.v.,87.5 mmHg
same,"Blood pressure in femoral artery, B: After administration",femoral artery [3]; 0.5 mg/kg i.v.,69.2 mmHg
same,"Blood pressure in femoral artery, E: Lowering degree",femoral artery [3]; 0.5 mg/kg i.v.,18.3 mmHg
same,"Blood pressure in femoral artery, F: Lowering rate",femoral artery [3]; 0.5 mg/kg i.v.,21.2%
